Test results: US20060046968A1, “Prodrug substituted benzoxazoles as estrogenic agents” (priority 2004, published 2006)

Key:
Type in all cases: in vivo
[1] = tested on: Male HLA-B27 rats; assay: HLA-B27 rat model of arthritis: joint histology; conditions: Study 1; oral 46 days; 10 mg/kg days 1-18, then 20 mg/kg
Method: At the end of the study, the rats are euthanized with CO2, hindlimbs removed at necropsy and fixed in 10% buffered formalin, and the tarsal joints decalcified and embedded in paraffin. Histologic sections are stained with Hematoxylin and Eosin or […] Green stain. Slides are coded so that the examiner is blinded to the treatment groups. Synovial tissue from tarsal joints is evaluated based on synovial hyperplasia, inflammatory cell infiltration, and pannus formation [Poole and Coombs, International Archives of Allergy & Applied Immunology 54: 97-113 (1977)], as outlined below. [table] […] [table] Representative metabolites of compounds of the invention were evaluated in the HLA-B27 rat standard pharmacological test procedure, which emulates arthritis in humans. The following briefly describes the procedure used and results obtained. Male HLA-B27 rats were obtained from Taconic and provided unrestricted access to a food (PMI® LabDiet 5001) and water. Joint scores and histology were evaluated as described above for the Lewis rat model of adjuvant-induced arthritis. Study 1: […]

[2] = tested on: Male HLA-B27 rats; assay: HLA rat test for inflammatory bowel disease: stool character (3 = diarrhea; 2 = soft stool; 1 = normal stool); conditions: Study C
[3] = tested on: Male HLA-B27 rats; assay: HLA-B27 rat model of arthritis: joint scores; conditions: Study 1, oral 20 mg/kg once per day (10 mg/kg earlier)
[4] = tested on: Male HLA-B27 rats; assay: HLA-B27 rat test for inflammatory bowel disease: histological scoring of colon; conditions: Study C
Method: Representative metabolites of compounds of the invention were evaluated in the HLA rat standard pharmacological test procedure, which emulates inflammatory bowel disease in humans. The following briefly describes the procedure used and results obtained. […] Louis) and water. Stool quality was observed daily and graded according to the following scale: Diarrhea=3; soft stool=2; normal stool=1. At the end of the study, serum was collected and stored at −70° C. A section of colon was prepared for histological analysis and an additional segment was analyzed for myeloperoxidase activity. In Study A, rats (22-26 weeks old) were dosed subcutaneously once per day for seven days with one of the regimens listed below. […] Histological analysis. Colonic tissue was immersed in 10% neutral buffered formalin. Each specimen of colon was separated into four samples for evaluation. The formalin-fixed tissues were processed in a Tissue-Tek® vaccum infiltration processor (Miles, Inc; West Haven, Conn.) for paraffin embedding. The samples were sectioned at 5 μm and then stained with hematoxylin and eosin (H&E) for blinded histological evaluations using a scale modified after Boughton-Smith. After the scores were completed, the samples were unblinded, and data were tabulated and analyzed by ANOVA linear modeling with multiple mean comparisons. Sections of colonic tissue were evaluated for several disease indicators and given relative scores.

[5] = tested on: Sexually immature 129 SvE mice; assay: Mouse uterotrophic test procedure (Procedure 2); conditions: compound 20 mg/kg s.c., days 22-25
[6] = tested on: ovariectomized Sprague-Dawley rats; assay: Bone mineral density in the ovariectomized rat (pQCT, proximal tibia); conditions: compound 10 mg/kg s.c.; 5 weeks
[7] = tested on: Sexually immature Sprague-Dawley rats; assay: Rat uterotrophic test procedure (Procedure 1); conditions: compound 2 mg/rat + 17α-ethinyl, 17β-estradiol 0.06 μg/rat s.c. (antagonist mode)
[8] = oral 7 weeks, 10 mg/kg days 1-18, then 20 mg/kg

Which “Mankin score (mean ± SD)” value [1] does the source give for `Oc1cc(Br)c2oc(-c3ccc(O)c(F)c3)nc2c1` [Example 21, 7-BROMO-2-(3-FLUORO-4-HYDROXYPHENYL)-1,3-BENZOXAZOL-5-OL] here?
The value was 4.6 ± 0.9.

And the “Synovitis score (mean ± SD)” value [1]?
Its value is 6.1 ± 0.75.

What about the “Stool Character (group's average score)” value ([2]; oral 10 mg/kg once per day, Day 1) of the same molecule?
The value was 2.75.

And the “Stool Character (group's average score)” value ([2]; oral 10 mg/kg once per day, Day 3)?
The value was 2.75.

And the “Stool Character (group's average score)” value ([2]; oral 10 mg/kg once per day, Day 4)?
Its value is 2.75.

And the “Stool Character (group's average score)” value ([2]; oral 10 mg/kg once per day, Day 5)?
The value was 2.75.

And the “Stool Character (group's average score)” value ([2]; oral 10 mg/kg once per day, Day 6)?
The value was 2.5.

What about the “Stool Character (group's average score)” value ([2]; oral 10 mg/kg once per day, Day 7) of the same molecule?
The value was 2.5.

And the “Stool Character (group's average score)” value ([2]; oral 10 mg/kg once per day, Day 8)?
Its value is 2.75.

And the “Stool Character (group's average score)” value ([2]; oral 10 mg/kg once per day, Day 9)?
Its value is 2.5.

What about the “Stool Character (group's average score)” value ([2]; oral 10 mg/kg once per day, Day 10) of the same molecule?
Its value is 2.75.

And the “Stool Character (group's average score)” value ([2]; oral 10 mg/kg once per day, Day 11)?
Its value is 2.5.

And the “Stool Character (group's average score)” value ([2]; oral 10 mg/kg once per day, Day 12)?
The value was 2.5.

And the “Stool Character (group's average score)” value ([2]; oral 10 mg/kg once per day, Day 13)?
The value was 2.5.

What about the “Stool Character (group's average score)” value ([2]; oral 10 mg/kg once per day, Day 14) of the same molecule?
Its value is 2.5.

And the “Stool Character (group's average score)” value ([2]; oral 10 mg/kg once per day, Day 15)?
The value was 2.5.

And the “Stool Character (group's average score)” value ([2]; oral 10 mg/kg once per day, Day 16)?
Its value is 2.5.

And the “Stool Character (group's average score)” value ([2]; oral 10 mg/kg once per day, Day 17)?
Its value is 2.5.

And the “Stool Character (group's average score)” value ([2]; oral 10 mg/kg once per day, Day 18)?
The value was 2.5.

And the “Stool Character (group's average score)” value ([2]; oral 20 mg/kg once per day (10 mg/kg days 1-18), Day 19)?
The value was 2.75.

And the “Stool Character (group's average score)” value ([2]; oral 20 mg/kg once per day (10 mg/kg days 1-18), Day 20)?
Its value is 2.5.

What about the “Stool Character (group's average score)” value ([2]; oral 20 mg/kg once per day (10 mg/kg days 1-18), Day 21) of the same molecule?
Its value is 2.75.

And the “Stool Character (group's average score)” value ([2]; oral 20 mg/kg once per day (10 mg/kg days 1-18), Day 22)?
Its value is 2.5.

What about the “Stool Character (group's average score)” value ([2]; oral 20 mg/kg once per day (10 mg/kg days 1-18), Day 23) of the same molecule?
The value was 2.25.

And the “Stool Character (group's average score)” value ([2]; oral 20 mg/kg once per day (10 mg/kg days 1-18), Day 24)?
Its value is 1.75.

What about the “Stool Character (group's average score)” value ([2]; oral 20 mg/kg once per day (10 mg/kg earlier), Day 25) of the same molecule?
The value was 2.

What about the “Stool Character (group's average score)” value ([2]; oral 20 mg/kg once per day (10 mg/kg earlier), Day 26) of the same molecule?
The value was 2.

What about the “Stool Character (group's average score)” value ([2]; oral 20 mg/kg once per day (10 mg/kg earlier), Day 27) of the same molecule?
Its value is 2.

What about the “Stool Character (group's average score)” value ([2]; oral 20 mg/kg once per day (10 mg/kg earlier), Day 28) of the same molecule?
The value was 2.

What about the “Stool Character (group's average score)” value ([2]; oral 20 mg/kg once per day (10 mg/kg earlier), Day 29) of the same molecule?
Its value is 2.

And the “Stool Character (group's average score)” value ([2]; oral 20 mg/kg once per day (10 mg/kg earlier), Day 30)?
Its value is 2.25.

And the “Stool Character (group's average score)” value ([2]; oral 20 mg/kg once per day (10 mg/kg earlier), Day 31)?
The value was 2.25.

What about the “Stool Character (group's average score)” value ([2]; oral 20 mg/kg once per day (10 mg/kg earlier), Day 32) of the same molecule?
The value was 2.

And the “Stool Character (group's average score)” value ([2]; oral 20 mg/kg once per day (10 mg/kg earlier), Day 33)?
Its value is 1.5.

What about the “Stool Character (group's average score)” value ([2]; oral 20 mg/kg once per day (10 mg/kg earlier), Day 34) of the same molecule?
Its value is 1.75.

What about the “Stool Character (group's average score)” value ([2]; oral 20 mg/kg once per day (10 mg/kg earlier), Day 35) of the same molecule?
The value was 1.5.

And the “Stool Character (group's average score)” value ([2]; oral 20 mg/kg once per day (10 mg/kg earlier), Day 36)?
Its value is 1.75.

What about the “Stool Character (group's average score)” value ([2]; oral 20 mg/kg once per day (10 mg/kg earlier), Day 37) of the same molecule?
The value was 1.5.

And the “Stool Character (group's average score)” value ([2]; oral 20 mg/kg once per day (10 mg/kg earlier), Day 38)?
The value was 1.5.

And the “Stool Character (group's average score)” value ([2]; oral 20 mg/kg once per day (10 mg/kg earlier), Day 39)?
The value was 2.

And the “Stool Character (group's average score)” value ([2]; oral 20 mg/kg once per day (10 mg/kg earlier), Day 40)?
Its value is 1.75.

And the “Stool Character (group's average score)” value ([2]; oral 20 mg/kg once per day (10 mg/kg earlier), Day 41)?
Its value is 2.

What about the “Stool Character (group's average score)” value ([2]; oral 20 mg/kg once per day (10 mg/kg earlier), Day 42) of the same molecule?
The value was 2.

What about the “Stool Character (group's average score)” value ([2]; oral 20 mg/kg once per day (10 mg/kg earlier), Day 43) of the same molecule?
The value was 2.

And the “Stool Character (group's average score)” value ([2]; oral 20 mg/kg once per day (10 mg/kg earlier), Day 44)?
The value was 2.

And the “Stool Character (group's average score)” value ([2]; oral 20 mg/kg once per day (10 mg/kg earlier), Day 45)?
Its value is 2.

What about the “Stool Character (group's average score)” value ([2]; oral 20 mg/kg once per day (10 mg/kg earlier), Day 46) of the same molecule?
Its value is 2.

What about the Joint inflammation score ([3]; Day 29) of the same molecule?
The Joint inflammation score was 0.75.

What about the Joint inflammation score ([3]; Day 30) of the same molecule?
Its Joint inflammation score is 1.75.

What about the Joint inflammation score ([3]; Day 31) of the same molecule?
The Joint inflammation score was 1.25.

What about the Joint inflammation score ([3]; Day 32) of the same molecule?
The Joint inflammation score was 0.75.

And the Joint inflammation score ([3]; Day 33)?
Its Joint inflammation score is 1.

What about the Joint inflammation score ([3]; Day 34) of the same molecule?
Its Joint inflammation score is 1.25.

And the Joint inflammation score ([3]; Day 35)?
Its Joint inflammation score is 2.25.

And the Joint inflammation score ([3]; Day 36)?
Its Joint inflammation score is 1.

And the Joint inflammation score ([3]; Day 37)?
Its Joint inflammation score is 4.

And the Joint inflammation score ([3]; Day 38)?
Its Joint inflammation score is 1.5.

What about the Joint inflammation score ([3]; Day 39) of the same molecule?
Its Joint inflammation score is 1.5.

And the Joint inflammation score ([3]; Day 40)?
Its Joint inflammation score is 2.25.

What about the Joint inflammation score ([3]; Day 41) of the same molecule?
The Joint inflammation score was 2.25.

What about the Joint inflammation score ([3]; Day 42) of the same molecule?
The Joint inflammation score was 1.5.

And the Joint inflammation score ([3]; Day 43)?
The Joint inflammation score was 1.25.

What about the Joint inflammation score ([3]; Day 44) of the same molecule?
Its Joint inflammation score is 1.

And the Joint inflammation score ([3]; Day 45)?
Its Joint inflammation score is 2.5.

And the Joint inflammation score ([3]; Day 46)?
The Joint inflammation score was 2.

What about the “Scores on all disease parameters versus vehicle” value ([4]; oral) of the same molecule?
The value was “although not statistically significant, were lower than corresponding scores from vehicle-treated rats”.

And the “Fibrosis (0-2), mean ± SD” value [4, 8]?
Its value is 0.56 ± 0.32.

What about the “Inflammation (0-3), mean ± SD” value [4, 8] of the same molecule?
Its value is 2.06 ± 0.43.

And the “Lesion depth (0-2), mean ± SD” value [4, 8]?
Its value is 0.75 ± 0.50.

And the “Total score, mean ± SD” value [4, 8]?
Its value is 4.19 ± 1.74.

And the “Ulceration (0-2), mean ± SD” value [4, 8]?
Its value is 0.81 ± 0.47.

What about the “mean uterine weight ± SEM” value [5] of the same molecule?
Its value is 12.1 ± 1.7 mg.

And the “Total Bone Mineral Density (mean ± SEM)” value [6]?
The value was 501.40 ± 11.97 mg/mL.

What about the “Trabecular Bone Mineral Density (mean ± SEM)” value [6] of the same molecule?
Its value is 312.34 ± 19.73 mg/mL.

And the “mean uterine weight ± SEM” value [7]?
Its value is 93.9 ± 5.9 mg.
